Measured values: ChEMBL document CHEMBL3991601, “The target landscape of clinical kinase drugs” (Science, 2017)
Active and inactive are the calls of the source.

How the values were obtained:
[1] = target: T1, Serine/threonine-protein kinase A-Raf (Homo sapiens, UniProt P10398)
T1 sequence (P10398 whole entry): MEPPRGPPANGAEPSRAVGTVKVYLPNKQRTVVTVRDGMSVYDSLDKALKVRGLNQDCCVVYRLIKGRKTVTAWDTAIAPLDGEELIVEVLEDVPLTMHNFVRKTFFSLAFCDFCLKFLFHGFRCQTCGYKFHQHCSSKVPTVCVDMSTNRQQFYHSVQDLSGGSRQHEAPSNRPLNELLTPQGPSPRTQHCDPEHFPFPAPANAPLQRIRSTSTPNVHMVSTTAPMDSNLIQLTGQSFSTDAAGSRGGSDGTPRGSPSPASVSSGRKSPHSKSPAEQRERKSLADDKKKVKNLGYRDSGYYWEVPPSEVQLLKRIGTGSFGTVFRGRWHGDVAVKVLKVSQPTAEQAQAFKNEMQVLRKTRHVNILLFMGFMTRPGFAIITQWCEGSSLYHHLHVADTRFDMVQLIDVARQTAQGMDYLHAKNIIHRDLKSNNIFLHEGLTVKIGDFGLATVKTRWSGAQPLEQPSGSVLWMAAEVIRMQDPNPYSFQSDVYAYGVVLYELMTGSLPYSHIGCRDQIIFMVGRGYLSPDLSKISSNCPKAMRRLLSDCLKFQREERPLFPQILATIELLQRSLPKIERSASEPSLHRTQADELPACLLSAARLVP

[2] = target: Mitogen-activated protein kinase kinase kinase 1 (Homo sapiens, UniProt Q13233)
Mitogen-activated protein kinase kinase kinase 1, sequence (Q13233 whole entry): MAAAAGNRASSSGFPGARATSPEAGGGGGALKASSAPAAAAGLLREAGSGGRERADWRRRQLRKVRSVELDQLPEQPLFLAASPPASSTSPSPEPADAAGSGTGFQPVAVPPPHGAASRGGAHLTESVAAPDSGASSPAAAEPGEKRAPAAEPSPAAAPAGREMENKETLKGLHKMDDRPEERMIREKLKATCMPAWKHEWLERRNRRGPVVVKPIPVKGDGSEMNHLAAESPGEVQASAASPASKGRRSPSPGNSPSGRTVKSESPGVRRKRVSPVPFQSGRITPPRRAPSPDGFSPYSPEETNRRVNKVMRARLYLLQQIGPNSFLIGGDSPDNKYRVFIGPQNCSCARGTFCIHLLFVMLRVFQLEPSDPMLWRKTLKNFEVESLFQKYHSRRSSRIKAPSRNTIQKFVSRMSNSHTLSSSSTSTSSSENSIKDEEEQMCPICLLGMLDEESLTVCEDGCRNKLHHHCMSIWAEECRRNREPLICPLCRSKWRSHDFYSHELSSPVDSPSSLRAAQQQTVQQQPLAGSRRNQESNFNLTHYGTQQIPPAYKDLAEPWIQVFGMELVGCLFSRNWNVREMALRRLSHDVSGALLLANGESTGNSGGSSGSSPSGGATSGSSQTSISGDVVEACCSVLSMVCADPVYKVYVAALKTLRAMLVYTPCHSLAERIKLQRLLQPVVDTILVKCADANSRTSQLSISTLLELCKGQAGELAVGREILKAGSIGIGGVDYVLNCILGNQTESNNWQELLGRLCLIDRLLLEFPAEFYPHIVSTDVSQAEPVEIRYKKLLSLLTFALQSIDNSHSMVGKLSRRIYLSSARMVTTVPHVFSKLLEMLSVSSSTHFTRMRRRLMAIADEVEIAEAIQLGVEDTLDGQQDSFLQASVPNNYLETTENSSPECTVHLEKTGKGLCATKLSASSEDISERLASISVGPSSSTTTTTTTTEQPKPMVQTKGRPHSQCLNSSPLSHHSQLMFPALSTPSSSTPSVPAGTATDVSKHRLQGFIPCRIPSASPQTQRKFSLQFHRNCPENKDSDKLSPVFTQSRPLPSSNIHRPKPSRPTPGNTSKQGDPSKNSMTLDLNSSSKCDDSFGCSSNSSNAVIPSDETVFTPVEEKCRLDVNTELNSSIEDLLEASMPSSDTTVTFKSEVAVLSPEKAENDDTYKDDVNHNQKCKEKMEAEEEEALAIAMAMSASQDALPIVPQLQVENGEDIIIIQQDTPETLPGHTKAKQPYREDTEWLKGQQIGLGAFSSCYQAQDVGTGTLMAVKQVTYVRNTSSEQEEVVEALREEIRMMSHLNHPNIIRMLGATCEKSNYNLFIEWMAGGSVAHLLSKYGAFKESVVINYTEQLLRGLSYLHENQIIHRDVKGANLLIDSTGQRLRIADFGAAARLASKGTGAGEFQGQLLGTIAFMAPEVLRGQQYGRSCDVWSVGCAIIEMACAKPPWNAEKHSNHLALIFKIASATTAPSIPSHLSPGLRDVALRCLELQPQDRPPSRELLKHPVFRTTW

[3] = target: T2, Very long-chain specific acyl-CoA dehydrogenase, mitochondrial (Homo sapiens, UniProt P49748)
T2 sequence (P49748 whole entry): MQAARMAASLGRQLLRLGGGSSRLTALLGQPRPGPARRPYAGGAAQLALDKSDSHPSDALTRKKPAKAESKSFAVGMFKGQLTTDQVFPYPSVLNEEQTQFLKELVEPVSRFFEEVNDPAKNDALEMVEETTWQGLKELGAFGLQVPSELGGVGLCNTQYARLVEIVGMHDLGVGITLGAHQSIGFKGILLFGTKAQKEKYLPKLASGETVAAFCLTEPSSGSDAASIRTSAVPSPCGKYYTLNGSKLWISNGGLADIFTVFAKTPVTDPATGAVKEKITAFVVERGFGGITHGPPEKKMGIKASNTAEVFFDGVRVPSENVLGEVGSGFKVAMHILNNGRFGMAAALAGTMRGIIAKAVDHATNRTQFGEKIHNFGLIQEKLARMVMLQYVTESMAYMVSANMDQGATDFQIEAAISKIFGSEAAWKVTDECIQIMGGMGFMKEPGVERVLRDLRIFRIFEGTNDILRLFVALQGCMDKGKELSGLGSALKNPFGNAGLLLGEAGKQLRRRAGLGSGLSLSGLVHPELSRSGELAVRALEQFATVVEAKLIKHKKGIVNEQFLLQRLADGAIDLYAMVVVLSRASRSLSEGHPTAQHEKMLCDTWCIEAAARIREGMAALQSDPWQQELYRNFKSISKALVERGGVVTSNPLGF

[4] = target: Calcium/calmodulin-dependent protein kinase type II subunit gamma (Homo sapiens, UniProt Q13555)
Calcium/calmodulin-dependent protein kinase type II subunit gamma, sequence (Q13555 whole entry): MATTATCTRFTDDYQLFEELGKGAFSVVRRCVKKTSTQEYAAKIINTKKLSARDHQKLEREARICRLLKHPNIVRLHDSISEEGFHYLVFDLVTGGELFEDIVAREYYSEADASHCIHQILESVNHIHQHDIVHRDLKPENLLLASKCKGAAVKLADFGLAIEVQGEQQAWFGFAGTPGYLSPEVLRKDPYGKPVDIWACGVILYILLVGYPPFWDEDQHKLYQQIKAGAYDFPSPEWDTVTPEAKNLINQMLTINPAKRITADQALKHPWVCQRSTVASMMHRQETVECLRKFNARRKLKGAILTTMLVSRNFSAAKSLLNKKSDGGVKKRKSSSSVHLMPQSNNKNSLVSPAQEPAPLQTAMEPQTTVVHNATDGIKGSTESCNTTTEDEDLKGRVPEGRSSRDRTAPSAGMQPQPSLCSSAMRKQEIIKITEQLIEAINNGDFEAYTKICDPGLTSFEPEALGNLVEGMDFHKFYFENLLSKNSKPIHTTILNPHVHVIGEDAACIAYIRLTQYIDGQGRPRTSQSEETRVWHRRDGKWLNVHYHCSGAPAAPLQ

Scaffold protein ILK = target: T3, Scaffold protein ILK (Homo sapiens, UniProt Q13418)
T3 sequence (Q13418 whole entry): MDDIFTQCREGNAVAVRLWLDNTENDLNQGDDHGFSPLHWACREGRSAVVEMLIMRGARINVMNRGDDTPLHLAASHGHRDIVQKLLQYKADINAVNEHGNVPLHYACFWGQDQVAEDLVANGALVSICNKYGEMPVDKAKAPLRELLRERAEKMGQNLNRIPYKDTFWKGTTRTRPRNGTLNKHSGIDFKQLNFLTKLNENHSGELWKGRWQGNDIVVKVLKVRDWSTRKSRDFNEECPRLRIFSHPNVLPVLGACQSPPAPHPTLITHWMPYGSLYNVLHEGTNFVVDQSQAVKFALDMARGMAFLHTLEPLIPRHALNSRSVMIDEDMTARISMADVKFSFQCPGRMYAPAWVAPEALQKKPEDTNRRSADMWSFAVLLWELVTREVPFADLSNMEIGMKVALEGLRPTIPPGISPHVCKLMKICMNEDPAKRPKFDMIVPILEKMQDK

[5] = target: T4, Adenine phosphoribosyltransferase (Homo sapiens, UniProt P07741)
T4 sequence (P07741 whole entry): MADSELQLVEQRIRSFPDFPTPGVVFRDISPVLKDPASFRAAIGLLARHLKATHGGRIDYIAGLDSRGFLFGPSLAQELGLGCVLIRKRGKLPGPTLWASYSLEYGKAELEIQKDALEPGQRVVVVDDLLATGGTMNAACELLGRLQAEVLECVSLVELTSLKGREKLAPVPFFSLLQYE

[6] = target: T5, Serine/threonine-protein kinase Nek3 (Homo sapiens, UniProt P51956)
T5 sequence (P51956 whole entry): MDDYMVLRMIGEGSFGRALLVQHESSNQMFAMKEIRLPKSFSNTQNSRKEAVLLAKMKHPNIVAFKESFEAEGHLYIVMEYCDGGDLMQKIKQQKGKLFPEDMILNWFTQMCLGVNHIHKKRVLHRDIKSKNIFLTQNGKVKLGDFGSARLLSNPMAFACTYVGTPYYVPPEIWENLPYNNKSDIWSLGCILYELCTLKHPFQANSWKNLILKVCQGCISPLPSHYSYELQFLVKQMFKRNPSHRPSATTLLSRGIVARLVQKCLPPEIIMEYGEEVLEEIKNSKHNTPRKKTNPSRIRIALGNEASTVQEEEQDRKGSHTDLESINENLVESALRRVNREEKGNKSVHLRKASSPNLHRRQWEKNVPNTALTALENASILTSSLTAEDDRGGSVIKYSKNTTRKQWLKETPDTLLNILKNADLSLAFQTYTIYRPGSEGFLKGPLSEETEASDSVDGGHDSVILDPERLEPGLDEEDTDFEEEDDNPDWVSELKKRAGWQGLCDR

[7] = target: Serine/threonine-protein kinase/endoribonuclease IRE2 (Homo sapiens, UniProt Q76MJ5)
Serine/threonine-protein kinase/endoribonuclease IRE2, sequence (Q76MJ5 whole entry): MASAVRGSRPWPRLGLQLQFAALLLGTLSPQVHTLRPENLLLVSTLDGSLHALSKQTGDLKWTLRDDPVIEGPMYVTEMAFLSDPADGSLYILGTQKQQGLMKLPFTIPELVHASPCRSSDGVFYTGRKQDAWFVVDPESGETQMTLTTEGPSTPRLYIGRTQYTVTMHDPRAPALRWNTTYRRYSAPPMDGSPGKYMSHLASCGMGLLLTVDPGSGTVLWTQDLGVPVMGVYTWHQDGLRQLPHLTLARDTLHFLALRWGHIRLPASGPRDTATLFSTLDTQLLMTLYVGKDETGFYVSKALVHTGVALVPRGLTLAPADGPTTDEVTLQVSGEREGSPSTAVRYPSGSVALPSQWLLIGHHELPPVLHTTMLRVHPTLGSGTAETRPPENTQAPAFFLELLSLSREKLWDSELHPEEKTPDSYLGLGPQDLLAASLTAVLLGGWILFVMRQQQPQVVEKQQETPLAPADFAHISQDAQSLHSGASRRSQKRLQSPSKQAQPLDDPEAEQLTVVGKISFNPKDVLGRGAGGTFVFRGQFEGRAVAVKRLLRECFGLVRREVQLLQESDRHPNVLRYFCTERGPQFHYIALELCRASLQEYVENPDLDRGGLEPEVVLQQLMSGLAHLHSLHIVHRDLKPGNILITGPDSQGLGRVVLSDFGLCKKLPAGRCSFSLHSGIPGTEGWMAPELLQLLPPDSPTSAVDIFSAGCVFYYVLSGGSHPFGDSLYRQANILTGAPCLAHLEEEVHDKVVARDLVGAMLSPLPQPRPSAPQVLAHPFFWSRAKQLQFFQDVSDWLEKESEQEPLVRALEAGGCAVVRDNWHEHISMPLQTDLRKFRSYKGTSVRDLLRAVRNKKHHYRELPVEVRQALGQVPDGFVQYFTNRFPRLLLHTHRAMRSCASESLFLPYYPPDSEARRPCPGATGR

[8] = target: Cyclin-dependent kinase 5 (Homo sapiens, UniProt Q00535)
Cyclin-dependent kinase 5, sequence (Q00535 whole entry): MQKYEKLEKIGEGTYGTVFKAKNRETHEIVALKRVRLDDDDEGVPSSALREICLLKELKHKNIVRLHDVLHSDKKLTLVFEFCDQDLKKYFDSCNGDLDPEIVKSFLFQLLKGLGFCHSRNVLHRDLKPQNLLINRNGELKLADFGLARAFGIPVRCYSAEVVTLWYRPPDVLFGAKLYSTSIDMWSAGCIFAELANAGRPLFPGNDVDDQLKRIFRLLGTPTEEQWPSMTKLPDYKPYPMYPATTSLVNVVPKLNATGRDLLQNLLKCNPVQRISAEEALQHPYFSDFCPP
Also: in the data inactive means no Kd found up to 30 µM.

| Compound | Kd [1] | Kd [2] | Kd [3] | Kd [4] | Kd (Scaffold protein ILK) | Kd [5] | Kd [6] | Kd [7] | Kd [8] |
| --- | --- | --- | --- | --- | --- | --- | --- | --- | --- |
| C[C@@H](Oc1cc(C(=O)Nc2ccc(C(=O)N3CCN(C)CC3)cc2)nnc1N)c1c(Cl)ccc(F)c1Cl | > 30 µM (inactive) | 2.19 µM (active) | > 30 µM (inactive) | > 30 µM (inactive) | > 30 µM (inactive) | > 30 µM (inactive) | > 30 µM (inactive) | > 30 µM (inactive) | > 30 µM (inactive) |
| COc1cc([C@@H]2c3cc4c(cc3[C@H](O)[C@H]3COC(=O)[C@@H]23)OCO4)cc(OC)c1OC [AXL-1717] | > 30 µM (inactive) | > 30 µM (inactive) | > 30 µM (inactive) | > 30 µM (inactive) | > 30 µM (inactive) | > 30 µM (inactive) | > 30 µM (inactive) | > 30 µM (inactive) | > 30 µM (inactive) |
| NC(=O)Nc1cc(-c2cccc(F)c2)sc1C(=O)N[C@H]1CCCNC1 [AZD-7762] | > 30 µM (inactive) | > 30 µM (inactive) | > 30 µM (inactive) | > 30 µM (inactive) | > 30 µM (inactive) | > 30 µM (inactive) | > 30 µM (inactive) | > 30 µM (inactive) | > 30 µM (inactive) |
| Cc1cc(C(=O)NOCCO)c(Nc2ccc(I)cc2F)n(C)c1=O [AZD-8330] | > 30 µM (inactive) | > 30 µM (inactive) | > 30 µM (inactive) | > 30 µM (inactive) | > 30 µM (inactive) | > 30 µM (inactive) | > 30 µM (inactive) | > 30 µM (inactive) | > 30 µM (inactive) |
| Cn1cnc2c(F)c(Nc3ccc(Br)cc3F)c(C(=O)NOCCO)cc21 [BINIMETINIB] | > 30 µM (inactive) | > 30 µM (inactive) | > 30 µM (inactive) | > 30 µM (inactive) | > 30 µM (inactive) | > 30 µM (inactive) | > 30 µM (inactive) | > 30 µM (inactive) | > 30 µM (inactive) |
| CCn1c(C(=O)N(C2CC2)C2CC2)cc2c3c(ncn3C)c(Nc3cc(C)n(C)n3)nc21 [BMS-911543] | > 30 µM (inactive) | > 30 µM (inactive) | > 30 µM (inactive) | > 30 µM (inactive) | > 30 µM (inactive) | > 30 µM (inactive) | > 30 µM (inactive) | > 30 µM (inactive) | > 30 µM (inactive) |
| COc1cc2ncnc(Oc3cccc(NC(=O)Nc4cc(C(C)(C)C(F)(F)F)on4)c3)c2cc1OC [CEP-32496] | > 30 µM (inactive) | > 30 µM (inactive) | > 30 µM (inactive) | > 30 µM (inactive) | > 30 µM (inactive) | > 30 µM (inactive) | > 30 µM (inactive) | > 30 µM (inactive) | > 30 µM (inactive) |
| Cc1cc(Nc2ncc(Cl)c(Nc3ccccc3S(=O)(=O)C(C)C)n2)c(OC(C)C)cc1C1CCNCC1 [CERITINIB] | > 30 µM (inactive) | > 30 µM (inactive) | > 30 µM (inactive) | > 30 µM (inactive) | > 30 µM (inactive) | > 30 µM (inactive) | > 30 µM (inactive) | > 30 µM (inactive) | > 30 µM (inactive) |
| COc1c(OCCCN2CCOCC2)ccc2c1N=C(NC(=O)c1cnc(N)nc1)N1CCN=C21 [COPANLISIB] | > 30 µM (inactive) | > 30 µM (inactive) | > 30 µM (inactive) | > 30 µM (inactive) | > 30 µM (inactive) | > 30 µM (inactive) | > 30 µM (inactive) | > 30 µM (inactive) | > 30 µM (inactive) |
| COCC(=O)NC/C=C/c1ccc2ncnc(Nc3ccc(Oc4ccc(C)nc4)c(C)c3)c2c1 [CP-724714] | > 30 µM (inactive) | > 30 µM (inactive) | > 30 µM (inactive) | > 30 µM (inactive) | > 30 µM (inactive) | > 30 µM (inactive) | > 30 µM (inactive) | > 30 µM (inactive) | > 30 µM (inactive) |
| C#Cc1cccc(Nc2ncnc3cc(OC)c(OCCCCCCC(=O)NO)cc23)c1 [CUDC-101] | > 30 µM (inactive) | 1.28 µM (active) | > 30 µM (inactive) | > 30 µM (inactive) | > 30 µM (inactive) | > 30 µM (inactive) | > 30 µM (inactive) | > 30 µM (inactive) | > 30 µM (inactive) |
| CC(C)(C)c1nc(-c2cccc(NS(=O)(=O)c3c(F)cccc3F)c2F)c(-c2ccnc(N)n2)s1 [DABRAFENIB] | 0.047 µM (active) | > 30 µM (inactive) | > 30 µM (inactive) | > 30 µM (inactive) | > 30 µM (inactive) | > 30 µM (inactive) | > 30 µM (inactive) | 0.116 µM | 1.07 µM (active) |
| O=C(Nc1nc2cccc(-c3ccc(CN4CCS(=O)(=O)CC4)cc3)n2n1)C1CC1 [FILGOTINIB] | > 30 µM (inactive) | > 30 µM (inactive) | > 30 µM (inactive) | > 30 µM (inactive) | > 30 µM (inactive) | > 30 µM (inactive) | > 30 µM (inactive) | > 30 µM (inactive) | > 30 µM (inactive) |
| COc1ccc(S(=O)(=O)N(C(C)=O)c2ccccc2/C=C/c2cc[n+]([O-])cc2)cc1 [HMN-214] | > 30 µM (inactive) | > 30 µM (inactive) | > 30 µM (inactive) | > 30 µM (inactive) | > 30 µM (inactive) | > 30 µM (inactive) | > 30 µM (inactive) | > 30 µM (inactive) | > 30 µM (inactive) |
| CNC(=O)c1cccc2cc(Oc3ccnc4cc(OCC5(N)CC5)c(OC)cc34)ccc12 [LUCITANIB] | > 30 µM (inactive) | > 30 µM (inactive) | > 30 µM (inactive) | > 30 µM (inactive) | > 30 µM (inactive) | > 30 µM (inactive) | > 30 µM (inactive) | > 30 µM (inactive) | > 30 µM (inactive) |
| CN(C[C@@H]1COCCO1)S(=O)(=O)Nc1ccc2ccc3ncc(-c4cnn(C)c4)cc3c(=O)c2c1 [MK-2461] | > 30 µM (inactive) | > 30 µM (inactive) | > 30 µM (inactive) | > 30 µM (inactive) | > 30 µM (inactive) | > 30 µM (inactive) | > 30 µM (inactive) | > 30 µM (inactive) | > 30 µM (inactive) |
